From US20250206732A1, “COMPOUNDS AND METHODS FOR THE TARGETED DEGRADATION OF KRAS” (Arvinas Operations, Inc., priority 2022, published 2025)

Columns and labels:
AsPC-1 HiBiT-KRASG12D = target: T1, AsPC-1 HiBiT-KRASG12D (Homo sapiens, UniProt P01116, G12D); experiment: HiBiT degradation assay (G12D), AsPC-1 HiBiT-KRASG12D cells; assay type: cell-based; conditions: 24 hours treatment; for DC50: AsPC-1 HiBiT-KRASG12D cells, HiBiT luminescence; for Dmax: ASPC1, AsPC-1 HiBiT-KRASG12D cells, maximum degradation observed
T1 construct: insert the HiBiT tag onto the N-terminus of one or more of the endogenous KRAS alleles; endogenous in cells; host or cells: AsPC-1 (ATCC CRL-1682), CRISPR-Cas9 knock-in clone, one tagged allele
Method in brief: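 HiBiT-KRAS abundance was read as Nano-Glo HiBiT lytic luminescence (45 min, room temperature) after a PBS wash. Before that, a 4 h alamar blue fluorescence read, normalized to DMSO, monitored viability. Treatment lasted 24 hours at 37 °C, in triplicate, using AsPC-1 cells with endogenous N-terminally HiBiT-tagged KRAS G12D.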

SW1573 HiBiT-KRASG12C = target: T2, SW1573 HiBiT-KRASG12C (Homo sapiens, UniProt P01116, G12C); experiment: HiBiT degradation assay (G12C), SW1573 HiBiT-KRASG12C cells; assay type: cell-based; conditions: 24 hours treatment; for DC50: HiBiT luminescence; for Dmax: maximum degradation observed;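 as to DC50: Letter grades: C is 1000 to 3000 nM and D is above 3000 nM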
T2 construct: expressed in transfected cells
Description: Reagents. SW1573 (CRL-2170), AsPC-1 (CRL-1682), and SW620 (CCL-227) cells were purchased from ATCC. SW1573 cells are homozygous for the G12C mutation in KRAS, AsPC-1 cells are homozygous for the G12D mutation, and SW620 cells are homozygous for the G12V mutation. SW1573 cells were cultured in DMEM+F12+Glutamax (+Sodium Bicarbonate, +sodium pyruvate, ThermoFisher scientific, #10565) supplemented with 10% FBS (ThermoFisher scientific, #2060357) and 1% Antibiotic-Antimycotic (ThermoFisher scientific, #15240096). AsPC-1 cells were cultured in GIBCO RPMI-1640 (ThermoFisher scientific, catalog #61870-036 with Glutamax, No HEPES, No Na Pyruvate) supplemented with 10% FBS (ThermoFisher scientific, catalog #2060357) and 1× Penicillin-Streptomycin (ThermoFisher scientific, catalog #15140122, 10000 U/ml, 100×). SW620 cells were cultured in DMEM Glutamax (ThermoFisher scientific, catalog #10566016) supplemented with 10% FBS (ThermoFisher scientific, catalog #2060357) and 1× Penicillin-Streptomycin (ThermoFisher scientific, catalog #15140122, 10000 U/ml, 100×). For degradation assays, 384 well plates were used. Alamar blue was purchased from ThermoFisher scientific (A50101) and used according to manufacturer instructions. The Nano-Glo® HiBiT Lytic Detection System and Nano-Glo® HiBiT Blotting System were purchased from Promega (#N3050 and #N2410) and used according to manufacturer instructions.
HiBiT-tagged cell line generation. To create the SW1573 HiBiT-KRASG12C cell line, the nucleotide sequence encoding the 11 amino acid HiBiT tag from Promegal was appended to the N-terminus of the KRASG12C coding sequence. This synthesized DNA was cloned into a modified pcDNA3.1 vector under the control of the thymidine kinase (TK) promoter. This HiBiT-KRASG12C expressing plasmid was transfected into parental SW1573 cells and colonies were selected using 400 μg/mL zeocin. The resulting clonal lines were screened for expression of HiBiT-KRASG12C protein using Nano-Glo® HiBiT Blotting System. A luminescent band of the correct size for HiBiT-KRASG12C was detected in several clones. Clone E6 was selected for further studies.
HiBiT degradation assays (G12C and G12D). Either SW1573 HiBiT-KRasG12C or AsPC-1 HiBiT-KRasG12D cells were plated at 9000 or 15,000 cells/well in a 384 well plate (Corning #3770). Compounds of the present disclosure and positive controls were diluted in the appropriate cell media and applied to the plated cells resulting in a final concentration titration of 10 μM to 508 pM in 0.5% DMSO. Gambogic acid was used as a positive control for cytotoxicity and titrated from 10 μM to 78 nM. All assays were performed in triplicate. Cells were treated with compounds for 24 hours at 37° C. in an incubator containing 5% CO2. Following treatment, alamar blue was used to determine if any compounds led to a loss in cell viability after 24 hours. The 10× alamar blue reagent was added to a final concentration of 1× as recommended by the manufacturer and cells were returned to the incubator for 4 hours. Plates were then allowed to equilibrate to room temperature and fluorescence was measured using a Perkin-Elmer EnVision. After completion of the fluorescence read, the liquid from each well was removed and the cells were washed with PBS. The Nano-Glo® HiBiT detection reagent was prepared according to the manufacturer's instructions and added to each well after the PBS wash was removed. Following incubation at room temperature for 45 minutes, the luminescence was read using the ultra-sensitive luminescence aperture on the Envision instrument.
Data analysis. Fluorescence values from the alamar blue treatment were normalized to the DMSO-only control for each compound titration. […]

T1 sequence (P01116 1-188 isoform P01116-2 G12D): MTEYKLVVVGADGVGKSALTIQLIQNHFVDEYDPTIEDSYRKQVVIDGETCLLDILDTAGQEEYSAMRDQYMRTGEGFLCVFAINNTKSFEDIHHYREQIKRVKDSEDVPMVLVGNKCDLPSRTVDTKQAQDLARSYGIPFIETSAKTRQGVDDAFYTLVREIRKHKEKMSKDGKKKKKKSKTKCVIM
T2 sequence (P01116 1-188 isoform P01116-2 G12C): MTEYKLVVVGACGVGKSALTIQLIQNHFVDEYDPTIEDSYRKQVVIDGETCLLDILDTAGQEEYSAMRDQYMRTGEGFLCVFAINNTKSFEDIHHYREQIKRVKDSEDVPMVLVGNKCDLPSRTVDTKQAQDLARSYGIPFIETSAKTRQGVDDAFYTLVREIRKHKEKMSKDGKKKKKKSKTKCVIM

| Compound | DC50 (AsPC-1 HiBiT-KRASG12D) [µM] | DC50 (SW1573 HiBiT-KRASG12C) [µM] | Dmax (AsPC-1 HiBiT-KRASG12D) [%] | Dmax (SW1573 HiBiT-KRASG12C) [%] |
| --- | --- | --- | --- | --- |
| Cc1ccc2[nH]ncc2c1-c1ncc2c(N3CC4CCC(C3)N4)nc(OCCN3CCC(COc4cc([C@H](C(=O)N5C[C@H](O)C[C@H]5C(=O)N[C@@H](C)c5ccc(-c6scnc6C)cc5)C(C)C)on4)CC3)nc2c1F [Compound 3, (2S,4R)-1-[(2R)-2-[3-[[1-[2-[4-(3,8-diazabicyclo[3.2.1]octan-3-yl)-8-fluoro-7-(5-methyl-1H-indazol-4-yl)pyrido[4,3-d]pyrimidin-2-yl]oxyethyl]-4-piperidyl]methoxy]isoxazol-5-yl]-3-methyl-butanoyl]-4-hydroxy-N-[(1S)-1-[4-(4-methylthiazol-5-yl)phenyl]ethyl]pyrrolidine-2-carboxamide] | > 3 | > 3 |  |  |
| CCc1cccc2cc(O)cc(-c3ncc4c(N5CC6CCC(C5)N6)nc(OCCN5CCC6(CC5)CN(c5cc([C@@H](C(=O)N7C[C@H](O)C[C@H]7C(=O)N[C@@H](C)c7ccc(-c8scnc8C)cc7)C(C)C)on5)C6)nc4c3F)c12 [Compound 15, (2S,4R)-1-[(2S)-2-[3-[7-[2-[4-(3,8-diazabicyclo[3.2.1]octan-3-yl)-7-(8-ethyl-3-hydroxy-1-naphthyl)-8-fluoro-pyrido[4,3-d]pyrimidin-2-yl]oxyethyl]-2,7-diazaspiro[3.5]nonan-2-yl]isoxazol-5-yl]-3-methyl-butanoyl]-4-hydroxy-N-[(1S)-1-[4-(4-methylthiazol-5-yl)phenyl]ethyl]pyrrolidine-2-carboxamide] | 1 to 3 | > 3 | 20 to 60 |  |
| Cc1ncsc1-c1ccc([C@H](C)NC(=O)[C@@H]2C[C@@H](O)CN2C(=O)[C@@H](NC(=O)COCC2CCN(CCOc3nc(N4CC5CCC(C4)N5)c4cnc(-c5cc(O)cc6ccccc56)c(F)c4n3)CC2)C(C)(C)C)cc1 [Compound 23, (2S,4R)-1-[(2S)-2-[[2-[[1-[2-[4-(3,8-diazabicyclo[3.2.1]octan-3-yl)-8-fluoro-7-(3-hydroxy-1-naphthyl)pyrido[4,3-d]pyrimidin-2-yl]oxyethyl]-4-piperidyl]methoxy]acetyl]amino]-3,3-dimethyl-butanoyl]-4-hydroxy-N-[(1S)-1-[4-(4-methylthiazol-5-yl)phenyl]ethyl]pyrrolidine-2-carboxamide] | 1 to 3 | > 3 | 20 to 60 |  |
| CCc1cccc2cccc(-c3ncc4c(N5CC6CCC(C5)N6)nc(OC[C@@]56CCCN5[C@H](COC(=O)N5CCN(c7cc([C@H](C(=O)N8C[C@H](O)C[C@H]8C(=O)N[C@@H](C)c8ccc(-c9scnc9C)cc8)C(C)C)on7)CC5)CC6)nc4c3F)c12 [Compound 35, [(3S,7aS)-7a-{[(4-{3,8-diazabicyclo[3.2.1]octan-3-yl}-7-(8-ethylnaphthalen-1-yl)-8-fluoropyrido[4,3-d]pyrimidin-2-yl)oxy]methyl}-hexahydro-1H-pyrrolizin-3-yl]methyl 4-{5-[(2R)-1-[(2S,4R)-4-hydroxy-2-{[(1S)-1-[4-(4-methyl-1,3-thiazol-5-yl)phenyl]ethyl]carbamoyl}pyrrolidin-1-yl]-3-methyl-1-oxobutan-2-yl]-1,2-oxazol-3-yl}piperazine-1-carboxylate] | < 0.6 | > 3 | 80 to 100 |  |
| CCc1cccc2cc(O)cc(-c3ncc4c(N5CC6CCC(C5)N6)nc(OC[C@]56CCCN5[C@@H](COC(=O)N5CCN(c7cc([C@@H](C(=O)N8C[C@H](O)C[C@H]8C(=O)N[C@@H](C)c8ccc(-c9scnc9C)cc8)C(C)C)on7)CC5)CC6)nc4c3F)c12 [Compound 6] | 1 to 3 | > 3 | < 20 |  |
| Cc1ncsc1-c1ccc([C@H](C)NC(=O)[C@@H]2C[C@@H](O)CN2C(=O)[C@@H](c2cc(N3CCN(C(=O)OC[C@H]4CC[C@@]5(COc6nc(N7CC8CCC(C7)N8)c7cnc(-c8cc(O)cc9ccccc89)c(F)c7n6)CCCN45)CC3)no2)C(C)C)cc1 [Compound 37, [(3R,7aR)-7a-{[(4-{3,8-diazabicyclo[3.2.1]octan-3-yl}-8-fluoro-7-(3-hydroxynaphthalen-1-yl)pyrido[4,3-d]pyrimidin-2-yl)oxy]methyl}-hexahydro-1H-pyrrolizin-3-yl]methyl 4-{5-[(2R)-1-[(2S,4R)-4-hydroxy-2-{[(1S)-1-[4-(4-methyl-1,3-thiazol-5-yl)phenyl]ethyl]carbamoyl}pyrrolidin-1-yl]-3-methyl-1-oxobutan-2-yl]-1,2-oxazol-3-yl}piperazine-1-carboxylate] | < 0.6 | > 3 | 80 to 100 |  |
| CCc1cccc2cc(O)cc(-c3ncc4c(N5CC6CCC(C5)N6)nc(OC[C@@]56CCCN5[C@H](COCC(=O)N[C@H](C(=O)N5C[C@H](O)C[C@H]5C(=O)N[C@@H](C)c5ccc(-c7scnc7C)cc5)C(C)(C)C)CC6)nc4c3F)c12 [Compound 2, (2S,4R)-1-[(2S)-2-(2-{[(3S,7aS)-7a-{[(4-{3,8-diazabicyclo[3.2.1]octan-3-yl}-7-(8-ethyl-3-hydroxynaphthalen-1-yl)-8-fluoropyrido[4,3-d]pyrimidin-2-yl)oxy]methyl}-hexahydro-1H-pyrrolizin-3-yl]methoxy}acetamido)-3,3-dimethylbutanoyl]-4-hydroxy-N-[(1S)-1-[4-(4-methyl-1,3-thiazol-5-yl)phenyl]ethyl]pyrrolidine-2-carboxamide] | < 0.6 | 1 to 3 | 80 to 100 | 20 to 60 |
| CCc1cccc2cc(O)cc(-c3ncc4c(N5CC6CCC(C5)N6)nc(OC[C@]56CCCN5[C@@H](COCC(=O)N[C@H](C(=O)N5C[C@H](O)C[C@H]5C(=O)N[C@@H](C)c5ccc(-c7scnc7C)cc5)C(C)(C)C)CC6)nc4c3F)c12 [Compound 1, (2S,4R)-1-[(2S)-2-[[2-[[(3R,8R)-8-[[4-(3,8-diazabicyclo[3.2.1]octan-3-yl)-7-(8-ethyl-3-hydroxy-1-naphthyl)-8-fluoro-pyrido[4,3-d]pyrimidin-2-yl]oxymethyl]-1,2,3,5,6,7-hexahydropyrrolizin-3-yl]methoxy]acetyl]amino]-3,3-dimethyl-butanoyl]-4-hydroxy-N-[(1S)-1-[4-(4-methylthiazol-5-yl)phenyl]ethyl]pyrrolidine-2-carboxamide] | 0.6 to 1 | > 3 | 80 to 100 | 20 to 60 |
| CCc1cccc2cc(O)cc(-c3ncc4c(N5CC6CCC(C5)N6)nc(OCCN5CCC(OCCOCC(=O)N[C@H](C(=O)N6C[C@H](O)C[C@H]6C(=O)N[C@@H](C)c6ccc(-c7scnc7C)cc6)C(C)(C)C)CC5)nc4c3F)c12 [Compound 11] | 1 to 3 | > 3 | 60 to 80 |  |
